Measured values taken from PubChem BioAssay (NCI).
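1) Cells in 96-well plates. 2) Compound, 48 h, 5 concentrations. 3) Linear interpolation between surrounding doses. 4) Unreached endpoint = highest concentration. TGI is the concentration that stops growth completely.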

Key:
Experiment in all cases: NCI-60 cell line screen, 48 h
786-0 renal = test system: 786-0 renal
A498 renal = test system: A498 renal
A549 NSCLC = test system: A549 NSCLC
ACHN renal = test system: ACHN renal
CCRF-CEM leukemia = test system: CCRF-CEM leukemia
COLO 205 colon = test system: COLO 205 colon
DLD-1 colon = test system: DLD-1 colon
DMS 114 small cell lung = test system: DMS 114 small cell lung
DMS 273 small cell lung = test system: DMS 273 small cell lung
EKVX NSCLC = test system: EKVX NSCLC
HCC-2998 colon = test system: HCC-2998 colon
HCT-116 colon = test system: HCT-116 colon
HCT-15 colon = test system: HCT-15 colon
HL-60(TB) leukemia = test system: HL-60(TB) leukemia
HOP-18 NSCLC = test system: HOP-18 NSCLC
HOP-62 NSCLC = test system: HOP-62 NSCLC
HOP-92 NSCLC = test system: HOP-92 NSCLC
HT29 colon = test system: HT29 colon
IGROV1 ovarian = test system: IGROV1 ovarian
K-562 leukemia = test system: K-562 leukemia
KM12 colon = test system: KM12 colon
LOX IMVI melanoma = test system: LOX IMVI melanoma
LXFL 529 NSCLC = test system: LXFL 529 NSCLC
M14 melanoma = test system: M14 melanoma
M19-MEL melanoma = test system: M19-MEL melanoma
MALME-3M melanoma = test system: MALME-3M melanoma
MOLT-4 leukemia = test system: MOLT-4 leukemia
NCI-H226 lung = test system: NCI-H226 lung
NCI-H23 lung = test system: NCI-H23 lung
NCI-H460 lung = test system: NCI-H460 lung
NCI-H522 lung = test system: NCI-H522 lung
OVCAR-3 ovarian = test system: OVCAR-3 ovarian
OVCAR-4 ovarian = test system: OVCAR-4 ovarian
OVCAR-5 ovarian = test system: OVCAR-5 ovarian
OVCAR-8 ovarian = test system: OVCAR-8 ovarian
RPMI-8226 leukemia = test system: RPMI-8226 leukemia
RXF 393 renal = test system: RXF 393 renal
RXF-631 renal = test system: RXF-631 renal
SF-268 CNS = test system: SF-268 CNS
SF-295 CNS = test system: SF-295 CNS
SF-539 CNS = test system: SF-539 CNS
SK-MEL-2 melanoma = test system: SK-MEL-2 melanoma
SK-MEL-28 melanoma = test system: SK-MEL-28 melanoma
SK-MEL-5 melanoma = test system: SK-MEL-5 melanoma
SK-OV-3 ovarian = test system: SK-OV-3 ovarian
SN12C renal = test system: SN12C renal
SNB-19 CNS = test system: SNB-19 CNS
SNB-75 CNS = test system: SNB-75 CNS
SNB-78 CNS = test system: SNB-78 CNS
SR leukemia = test system: SR leukemia
SW-620 colon = test system: SW-620 colon
TK-10 renal = test system: TK-10 renal
U251 CNS = test system: U251 CNS
UACC-257 melanoma = test system: UACC-257 melanoma
UACC-62 melanoma = test system: UACC-62 melanoma
UO-31 renal = test system: UO-31 renal
CAKI-1 renal = test system: CAKI-1 renal
KM20L2 colon = test system: KM20L2 colon

SMILES: CC(C)(CN1CCCCC1)C(=O)/C=C/c1ccc(Cl)c(Cl)c1
- TGI (786-0 renal): 2.69 µM
- TGI (A498 renal): 3.09 µM
- TGI (A549 NSCLC): 4.07 µM
- TGI (ACHN renal): 2.88 µM
- TGI (CCRF-CEM leukemia): 3.27 µM
- TGI (COLO 205 colon): 2.85 µM
- TGI (DLD-1 colon): 3.5 µM
- TGI (DMS 114 small cell lung): 3.05 µM
- TGI (DMS 273 small cell lung): 3.2 µM
- TGI (EKVX NSCLC): 3.29 µM
- TGI (HCC-2998 colon): 3.21 µM
- TGI (HCT-116 colon): 3.08 µM
- TGI (HCT-15 colon): 2.73 µM
- TGI (HL-60(TB) leukemia): 3.4 µM
- TGI (HOP-18 NSCLC): 2.85 µM
- TGI (HOP-62 NSCLC): 3.8 µM
- TGI (HOP-92 NSCLC): 2.34 µM
- TGI (HT29 colon): 3.06 µM
- TGI (IGROV1 ovarian): 4.15 µM
- TGI (K-562 leukemia): 4.13 µM
- TGI (KM12 colon): 3.25 µM
- TGI (LOX IMVI melanoma): 2.76 µM
- TGI (LXFL 529 NSCLC): 2.78 µM
- TGI (M14 melanoma): 3.07 µM
- TGI (M19-MEL melanoma): 3.21 µM
- TGI (MALME-3M melanoma): 3.31 µM
- TGI (MOLT-4 leukemia): 4.57 µM
- TGI (NCI-H226 lung): 3.15 µM
- TGI (NCI-H23 lung): 3.26 µM
- TGI (NCI-H460 lung): 3.46 µM
- TGI (NCI-H522 lung): 2.67 µM
- TGI (OVCAR-3 ovarian): 2.94 µM
- TGI (OVCAR-4 ovarian): 2.87 µM
- TGI (OVCAR-5 ovarian): 3.08 µM
- TGI (OVCAR-8 ovarian): > 100 µM
- TGI (RPMI-8226 leukemia): 5.34 µM
- TGI (RXF 393 renal): 2.42 µM
- TGI (RXF-631 renal): 3.72 µM
- TGI (SF-268 CNS): 3.74 µM
- TGI (SF-295 CNS): 5.86 µM
- TGI (SF-539 CNS): 4.6 µM
- TGI (SK-MEL-2 melanoma): 3.18 µM
- TGI (SK-MEL-28 melanoma): 3.37 µM
- TGI (SK-MEL-5 melanoma): 3.5 µM
- TGI (SK-OV-3 ovarian): 7.51 µM
- TGI (SN12C renal): 2.92 µM
- TGI (SNB-19 CNS): 12.2 µM
- TGI (SNB-75 CNS): 3.13 µM
- TGI (SNB-78 CNS): 4.5 µM
- TGI (SR leukemia): 4.69 µM
- TGI (SW-620 colon): 2.94 µM
- TGI (TK-10 renal): 2.8 µM
- TGI (U251 CNS): 2.7 µM
- TGI (UACC-257 melanoma): 2.41 µM
- TGI (UACC-62 melanoma): 4.06 µM
- TGI (UO-31 renal): 2.99 µM

SMILES: Cc1cc(C(C)C)cc(O)c(=O)c1
- TGI (786-0 renal): > 100 µM
- TGI (A498 renal): > 100 µM
- TGI (A549 NSCLC): > 100 µM
- TGI (ACHN renal): > 100 µM
- TGI (CAKI-1 renal): > 100 µM
- TGI (CCRF-CEM leukemia): > 100 µM
- TGI (COLO 205 colon): > 100 µM
- TGI (DLD-1 colon): > 100 µM
- TGI (DMS 273 small cell lung): > 100 µM
- TGI (EKVX NSCLC): > 100 µM
- TGI (HCC-2998 colon): > 100 µM
- TGI (HCT-116 colon): > 100 µM
- TGI (HCT-15 colon): > 100 µM
- TGI (HL-60(TB) leukemia): > 100 µM
- TGI (HOP-18 NSCLC): > 100 µM
- TGI (HOP-62 NSCLC): > 100 µM
- TGI (HOP-92 NSCLC): > 100 µM
- TGI (HT29 colon): > 100 µM
- TGI (IGROV1 ovarian): > 100 µM
- TGI (KM12 colon): > 100 µM
- TGI (KM20L2 colon): > 100 µM
- TGI (LOX IMVI melanoma): > 100 µM
- TGI (LXFL 529 NSCLC): > 100 µM
- TGI (M14 melanoma): > 100 µM
- TGI (M19-MEL melanoma): > 100 µM
- TGI (MALME-3M melanoma): > 100 µM
- TGI (MOLT-4 leukemia): > 100 µM
- TGI (NCI-H226 lung): > 100 µM
- TGI (NCI-H460 lung): > 100 µM
- TGI (NCI-H522 lung): > 100 µM
- TGI (OVCAR-3 ovarian): > 100 µM
- TGI (OVCAR-4 ovarian): > 100 µM
- TGI (OVCAR-5 ovarian): > 100 µM
- TGI (OVCAR-8 ovarian): > 100 µM
- TGI (RPMI-8226 leukemia): > 100 µM
- TGI (RXF 393 renal): > 100 µM
- TGI (RXF-631 renal): > 100 µM
- TGI (SF-268 CNS): > 100 µM
- TGI (SF-295 CNS): > 100 µM
- TGI (SF-539 CNS): > 100 µM
- TGI (SK-MEL-28 melanoma): > 100 µM
- TGI (SK-MEL-5 melanoma): > 100 µM
- TGI (SK-OV-3 ovarian): > 100 µM
- TGI (SN12C renal): > 100 µM
- TGI (SNB-19 CNS): > 100 µM
- TGI (SNB-75 CNS): > 100 µM
- TGI (SNB-78 CNS): > 100 µM
- TGI (SR leukemia): > 100 µM
- TGI (SW-620 colon): > 100 µM
- TGI (TK-10 renal): > 100 µM
- TGI (U251 CNS): > 100 µM
- TGI (UACC-257 melanoma): > 100 µM
- TGI (UACC-62 melanoma): > 100 µM
- TGI (UO-31 renal): > 100 µM
